# Data: patent US10508120B2, “TYK2 inhibitors and uses thereof” (Nimbus Lakshmi, Inc., priority 2017, dated 2019)
# Where two headings read alike, the source gives them in different places.
# Legend:
# [1] = target: human TYK2 (JH2domain-pseudokinase) (Homo sapiens (Human), UniProt P29597); assay: TYK2 JH2 Domain Binding Assay (KINOMEscan)
# Procedure, shortened: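 Pseudokinase domain binding was measured by qPCR of tagged, bead-retained kinase after 1 h room-temperature competition, with 0.9% DMSO and compound up to 30,000 nM in 3-fold steps. Hill-equation Kd, duplicate.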
# Tyk2 kinase domain (DH1) = Tyk2 kinase domain (DH1) (Homo sapiens (Human), UniProt P29597); assay: Tyk2 Radioactive Kinase Assay; format: biochemical; conditions: for inhibition at 10 µM: read-out: Tyk2 JH1% Inhibition @ 10 μM
# Procedure, shortened: (§1)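 Compounds were tested at a single concentration of 10 μM in a radiometric kinase format against each isolated kinase domain. Activity is reported as percent inhibition at that concentration.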
# JAK2 kinase domain (JH1) = JAK2 kinase domain (JH1) (Homo sapiens (Human), UniProt O60674); assay: JAK2 Radioactive Kinase Assay; format: biochemical; conditions: for inhibition at 10 µM: read-out: JAK2 JH1% Inhibition @ 10 μM
# Procedure, shortened: as §1
# [2] = target: Tyk2/JAK2 (heterodimeric complex) (Homo sapiens (Human), UniProt P29597); assay: IL-12 Induced pSTAT4 in Human PBMC; format: cell-based; conditions: 1.7 ng/mL IL-12
# Description: The IL-12 Induced pSTAT4 assay evaluates the inhibition of IL-12 induced STAT4 phophorylation mediated by Tyk2/JAK2 (heterodimeric complex).
# [3] = target: JAK2/JAK2 homdimeric complex (Homo sapiens (Human), UniProt O60674); assay: GM-CSF Induced pSTAT5 in Human PBMC; format: cell-based; conditions: GM-CSF 5 ng/mL for 20 minutes, pSTAT5 by MSD, read-out: PBMC_GMCSF_pSTAT5 IC50
# JAK2/JAK2 homdimeric complex, sequence (O60674 whole entry, the tested form may be a part): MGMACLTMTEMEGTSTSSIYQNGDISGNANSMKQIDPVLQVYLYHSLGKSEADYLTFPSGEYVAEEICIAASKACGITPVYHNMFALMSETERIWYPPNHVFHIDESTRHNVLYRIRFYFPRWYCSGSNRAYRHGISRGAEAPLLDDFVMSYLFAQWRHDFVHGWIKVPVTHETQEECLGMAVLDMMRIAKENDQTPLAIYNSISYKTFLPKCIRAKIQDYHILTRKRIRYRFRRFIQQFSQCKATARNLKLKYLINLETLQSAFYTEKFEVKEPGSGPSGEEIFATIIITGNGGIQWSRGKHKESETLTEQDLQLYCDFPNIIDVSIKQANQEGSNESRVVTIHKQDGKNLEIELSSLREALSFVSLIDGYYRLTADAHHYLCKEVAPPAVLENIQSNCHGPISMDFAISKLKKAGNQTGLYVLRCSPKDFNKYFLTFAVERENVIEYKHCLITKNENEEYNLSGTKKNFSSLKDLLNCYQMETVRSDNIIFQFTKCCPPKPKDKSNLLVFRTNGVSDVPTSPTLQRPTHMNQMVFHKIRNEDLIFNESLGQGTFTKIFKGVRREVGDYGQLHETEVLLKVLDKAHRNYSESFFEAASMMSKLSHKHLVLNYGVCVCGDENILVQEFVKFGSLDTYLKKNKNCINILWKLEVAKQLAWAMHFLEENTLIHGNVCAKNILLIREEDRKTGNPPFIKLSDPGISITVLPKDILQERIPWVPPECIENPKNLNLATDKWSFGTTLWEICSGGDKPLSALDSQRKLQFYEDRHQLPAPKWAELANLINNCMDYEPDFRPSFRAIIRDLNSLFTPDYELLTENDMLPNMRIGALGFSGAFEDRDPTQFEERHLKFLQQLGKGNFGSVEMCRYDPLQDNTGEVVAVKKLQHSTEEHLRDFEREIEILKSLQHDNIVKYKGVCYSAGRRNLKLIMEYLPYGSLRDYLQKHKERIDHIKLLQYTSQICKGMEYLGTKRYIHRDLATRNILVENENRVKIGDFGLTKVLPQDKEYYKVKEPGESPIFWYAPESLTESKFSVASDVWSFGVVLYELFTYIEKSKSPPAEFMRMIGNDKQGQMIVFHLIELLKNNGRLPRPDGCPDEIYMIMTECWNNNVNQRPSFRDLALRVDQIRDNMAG
# JAK2/JAK2 homdimeric complex, sequence (P32927 17-897 partner): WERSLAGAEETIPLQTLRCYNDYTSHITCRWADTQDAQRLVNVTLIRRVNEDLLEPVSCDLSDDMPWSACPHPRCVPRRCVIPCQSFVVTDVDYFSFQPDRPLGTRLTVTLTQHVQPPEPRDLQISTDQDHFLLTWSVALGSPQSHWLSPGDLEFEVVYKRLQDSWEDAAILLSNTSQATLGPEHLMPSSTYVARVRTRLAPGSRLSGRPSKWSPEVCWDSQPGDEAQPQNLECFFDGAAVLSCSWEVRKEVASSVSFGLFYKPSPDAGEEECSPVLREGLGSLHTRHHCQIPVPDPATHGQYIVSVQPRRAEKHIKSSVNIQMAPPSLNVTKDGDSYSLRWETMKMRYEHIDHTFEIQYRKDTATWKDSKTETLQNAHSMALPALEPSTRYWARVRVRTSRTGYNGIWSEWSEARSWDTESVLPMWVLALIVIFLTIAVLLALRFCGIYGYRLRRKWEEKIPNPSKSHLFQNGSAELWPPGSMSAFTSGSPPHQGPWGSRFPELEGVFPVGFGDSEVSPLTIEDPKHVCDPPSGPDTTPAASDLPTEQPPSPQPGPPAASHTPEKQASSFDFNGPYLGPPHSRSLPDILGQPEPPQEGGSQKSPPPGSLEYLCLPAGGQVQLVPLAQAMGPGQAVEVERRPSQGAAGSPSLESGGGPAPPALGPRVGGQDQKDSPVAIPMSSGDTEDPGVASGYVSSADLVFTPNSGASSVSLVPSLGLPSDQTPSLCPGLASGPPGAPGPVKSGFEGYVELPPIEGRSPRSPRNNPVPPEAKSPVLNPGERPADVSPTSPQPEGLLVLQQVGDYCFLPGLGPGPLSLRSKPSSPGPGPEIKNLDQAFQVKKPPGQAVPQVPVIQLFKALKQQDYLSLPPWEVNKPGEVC
# JAK2 kinase domain (JH1), sequence (O60674 849-1124): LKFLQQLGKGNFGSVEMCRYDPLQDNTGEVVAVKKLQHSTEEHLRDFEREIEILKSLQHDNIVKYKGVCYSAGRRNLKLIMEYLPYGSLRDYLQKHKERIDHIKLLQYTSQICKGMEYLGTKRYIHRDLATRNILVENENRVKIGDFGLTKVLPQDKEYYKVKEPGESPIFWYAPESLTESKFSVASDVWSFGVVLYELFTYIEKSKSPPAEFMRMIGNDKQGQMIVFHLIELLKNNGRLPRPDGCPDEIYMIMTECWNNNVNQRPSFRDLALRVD
# human TYK2 (JH2domain-pseudokinase), sequence (P29597 556-888): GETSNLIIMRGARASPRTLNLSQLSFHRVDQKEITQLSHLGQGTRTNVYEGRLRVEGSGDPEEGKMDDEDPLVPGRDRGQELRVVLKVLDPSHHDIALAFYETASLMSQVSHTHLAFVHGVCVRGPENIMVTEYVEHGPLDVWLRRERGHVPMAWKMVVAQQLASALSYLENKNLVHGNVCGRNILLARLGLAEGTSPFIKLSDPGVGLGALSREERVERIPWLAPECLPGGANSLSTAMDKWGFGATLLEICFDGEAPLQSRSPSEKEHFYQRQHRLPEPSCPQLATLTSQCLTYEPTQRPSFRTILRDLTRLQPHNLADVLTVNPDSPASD
# Tyk2/JAK2 (heterodimeric complex), sequence (P29597 whole entry, other chains not shown): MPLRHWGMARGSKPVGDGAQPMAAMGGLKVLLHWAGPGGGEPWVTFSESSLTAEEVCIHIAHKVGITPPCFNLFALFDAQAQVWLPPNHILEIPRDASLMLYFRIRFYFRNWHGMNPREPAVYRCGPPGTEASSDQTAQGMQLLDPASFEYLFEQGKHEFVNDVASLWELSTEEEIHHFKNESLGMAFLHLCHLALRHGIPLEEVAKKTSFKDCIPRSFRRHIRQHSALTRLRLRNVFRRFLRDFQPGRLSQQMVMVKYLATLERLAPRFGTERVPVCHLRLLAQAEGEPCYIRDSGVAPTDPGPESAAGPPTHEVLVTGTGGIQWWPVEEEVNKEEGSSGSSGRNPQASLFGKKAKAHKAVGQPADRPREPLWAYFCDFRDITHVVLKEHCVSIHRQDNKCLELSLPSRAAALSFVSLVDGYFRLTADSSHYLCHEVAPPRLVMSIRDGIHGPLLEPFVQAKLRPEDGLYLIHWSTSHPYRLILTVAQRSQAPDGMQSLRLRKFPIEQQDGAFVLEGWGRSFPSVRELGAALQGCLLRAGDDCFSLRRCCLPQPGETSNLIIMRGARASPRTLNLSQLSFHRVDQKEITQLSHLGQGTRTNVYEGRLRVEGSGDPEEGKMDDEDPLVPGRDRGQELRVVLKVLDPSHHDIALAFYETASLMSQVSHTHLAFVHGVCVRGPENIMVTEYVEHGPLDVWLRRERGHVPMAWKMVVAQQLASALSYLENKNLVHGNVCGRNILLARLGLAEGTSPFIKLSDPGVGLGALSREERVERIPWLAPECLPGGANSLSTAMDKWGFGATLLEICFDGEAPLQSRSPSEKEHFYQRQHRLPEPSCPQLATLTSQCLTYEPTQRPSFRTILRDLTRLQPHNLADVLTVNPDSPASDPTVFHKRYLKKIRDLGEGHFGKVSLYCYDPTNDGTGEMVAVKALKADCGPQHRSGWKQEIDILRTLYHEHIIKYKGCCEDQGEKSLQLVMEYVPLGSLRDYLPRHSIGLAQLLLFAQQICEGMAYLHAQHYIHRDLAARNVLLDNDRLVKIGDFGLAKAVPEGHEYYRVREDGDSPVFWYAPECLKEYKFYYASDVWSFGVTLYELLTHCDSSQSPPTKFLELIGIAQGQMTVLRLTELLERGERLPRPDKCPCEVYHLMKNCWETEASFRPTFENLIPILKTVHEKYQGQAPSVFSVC
# Tyk2 kinase domain (DH1), sequence (P29597 897-1176): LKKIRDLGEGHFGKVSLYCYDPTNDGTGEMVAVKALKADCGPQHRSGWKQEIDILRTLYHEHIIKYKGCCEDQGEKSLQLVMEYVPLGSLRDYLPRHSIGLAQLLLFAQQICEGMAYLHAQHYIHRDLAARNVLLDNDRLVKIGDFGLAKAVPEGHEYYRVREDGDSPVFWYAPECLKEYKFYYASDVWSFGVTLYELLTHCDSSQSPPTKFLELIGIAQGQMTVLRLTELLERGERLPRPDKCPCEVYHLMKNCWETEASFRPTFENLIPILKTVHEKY
Kd [1],"inhibition at 10 µM (Tyk2 kinase domain (DH1); compound at 10 μM, ATP 10 μM)","inhibition at 10 µM (JAK2 kinase domain (JH1); compound at 10 μM, ATP 10 μM)",IC50 [2],IC50 [3],"inhibition at 10 µM (Tyk2 kinase domain (DH1); 10 μM compound, 10 μM ATP)","inhibition at 10 µM (JAK2 kinase domain (JH1); 10 μM compound, 10 μM ATP)",Structure (SMILES),"Tyk2 JH1% Inhibition @ 10 μM (Tyk2 kinase domain (DH1); compound at 10 μM, ATP 10 μM)","JAK2 JH1% Inhibition @ 10 μM (JAK2 kinase domain (JH1); compound at 10 μM, ATP 10 μM)"
< 0.2 nM,< 50%,< 50%,100 to 500 nM,> 12500 nM,,,CNc1cc(Nc2cccnc2OC(C)C)nc2c(C(N)=O)cnn12 [I-72],,
< 0.2 nM,< 50%,< 50%,< 100 nM,> 2500 nM,,,CNc1cc(Nc2cccn(-c3cc(C)n(C)n3)c2=O)nc2c(C(=O)NC3CCC3)cnn12 [I-136],,
< 0.2 nM,< 50%,< 50%,< 100 nM,> 50000 nM,,,CNc1cc(Nc2cccn(-c3cc(C)n(C)n3)c2=O)nc2c(C(=O)N[C@H]3C[C@H]3F)cnn12 [I-137],,
< 0.2 nM,< 50%,< 50%,< 100 nM,> 2500 nM,,,"CNc1cc(-c2cn(C(C)C)c3ncccc23)nc2c(C(=O)N[C@H]3C[C@H](O)C3)cnn12 [I-630, N-((1r, 3r)-3-hydroxycyclobutyl)-5-(1-isopropyl-1H-pyrrolo[2,3-b]pyridin-3-yl)-7-(methylamino)pyrazolo[1,5-a]pyrimidine-3-carboxamide]",,
< 0.2 nM,< 50%,< 50%,< 100 nM,> 50000 nM,,,"CNc1cc(Nc2cccnc2OC)nc2c(C(=O)N[C@H]3C[C@@H]3O)cnn12 [I-438, N-((1S,2S)-2-hydroxycyclopropyl)-5-((2-methoxypyridin-3-yl)amino)-7-(methylamino)pyrazolo[1,5-a]pyrimidine-3-carboxamide]",,
< 0.2 nM,< 50%,< 50%,< 100 nM,> 12500 nM,,,"CNc1cc(Nc2cccn(-c3ccn(C4CC4)n3)c2=O)nc2c(C(=O)N[C@@H]3C[C@@H]3F)cnn12 (stereo in doubt) [I-106, 5-((1-(1-cyclopropyl-1H-pyrazol-3-yl)-2-oxo-1,2-dihydropyridin-3-yl)amino)-N-((1R,2S)-2-fluorocyclopropyl)-7-(methylamino)pyrazolo[1,5-a]pyrimidine-3-carboxamide]",,
< 0.2 nM,< 50%,< 50%,< 100 nM,> 12500 nM,,,CNc1cc(Nc2cccn(-c3ccc(OC)cn3)c2=O)nc2c(C(=O)NC3CCC3)cnn12 [I-266],,
< 0.2 nM,,,< 100 nM,> 50000 nM,< 50%,< 50%,CNC(=O)c1nscc1Nc1cc(NC)n2ncc(C(=O)N[C@@H]3C[C@@H]3F)c2n1 [I-914],,
< 0.2 nM,< 50%,< 50%,< 100 nM,> 50000 nM,,,CNc1cc(Nc2cccnc2OC2CCC2)nc2c(C(=O)N[C@H]3C[C@H]3F)cnn12 [I-170],,
< 0.2 nM,< 50%,< 50%,100 to 500 nM,> 12500 nM,,,CNc1cc(Nc2cccn(-c3cn(C)nc3F)c2=O)nc2c(C(=O)NC3CC3)cnn12 [I-606],,
< 0.2 nM,< 50%,< 50%,< 100 nM,> 2500 nM,,,CNc1cc(Nc2cc(F)cn(-c3ccc(C)nn3)c2=O)nc2c(C(=O)N[C@H]3C[C@H]3F)cnn12 [I-198],,
< 0.2 nM,< 50%,< 50%,< 100 nM,> 50000 nM,,,CNc1cc(Nc2cc(F)cnc2OC)nc2c(C(=O)NCC(C)(C)CO)cnn12 [I-283],,
< 0.2 nM,< 50%,< 50%,< 100 nM,> 12500 nM,,,CNc1cc(Nc2cc(F)cn(-c3ccccn3)c2=O)nc2c(C(=O)N[C@H]3C[C@H]3F)cnn12 [I-194],,
< 0.2 nM,50 to 70%,50 to 70%,< 100 nM,> 2500 nM,,,CNc1cc(Nc2cccc([C@@H]3CCCOC3)n2)nc2c(C(=O)N[C@H]3CC[C@@H]3O)cnn12 [I-603],,
< 0.2 nM,,,< 100 nM,> 50000 nM,,,[2H]C([2H])([2H])Oc1ncccc1Nc1cc(NC)n2ncc(C(=O)N[C@H]3CC[C@@H]3O)c2n1 [I-411],A (percent inhibition at 10 μM lower than 50),A (percent inhibition at 10 μM lower than 50)
< 0.2 nM,< 50%,< 50%,< 100 nM,> 50000 nM,,,[2H]C([2H])([2H])Oc1ncccc1Nc1cc(NC)n2ncc(C(=O)N[C@@H]3CCC[C@@H](O)C3)c2n1 [I-499],,
0.2 to 1 nM,< 50%,< 50%,100 to 500 nM,> 50000 nM,,,CNc1cc(Nc2cc(C)cnc2OC2CC2)nc2c(C(=O)NC3CC3)cnn12 [I-277],,

Kd [1],"inhibition at 10 µM (Tyk2 kinase domain (DH1); compound at 10 μM, ATP 10 μM)","inhibition at 10 µM (JAK2 kinase domain (JH1); compound at 10 μM, ATP 10 μM)",IC50 [2],IC50 [3],"inhibition at 10 µM (Tyk2 kinase domain (DH1); 10 μM compound, 10 μM ATP)","inhibition at 10 µM (JAK2 kinase domain (JH1); 10 μM compound, 10 μM ATP)",Structure (SMILES),"Tyk2 JH1% Inhibition @ 10 μM (Tyk2 kinase domain (DH1); compound at 10 μM, ATP 10 μM)","JAK2 JH1% Inhibition @ 10 μM (JAK2 kinase domain (JH1); compound at 10 μM, ATP 10 μM)"
< 0.2 nM,< 50%,< 50%,< 100 nM,> 12500 nM,,,CNc1cc(Nc2cccnc2OC2CC2)nc2c(C(=O)NC3CCC3)cnn12 [I-216],,
< 0.2 nM,< 50%,< 50%,< 100 nM,> 2500 nM,,,CNc1cc(Nc2cc(Cl)cn(-c3cc(C)n(C)n3)c2=O)nc2c(C(=O)NC3CC3)cnn12 [I-314],,
< 0.2 nM,< 50%,< 50%,< 100 nM,> 50000 nM,,,CNc1cc(Nc2cccn(C[C@@H]3CCCCO3)c2=O)nc2c(C(=O)NC3CC3)cnn12 [I-413],,
< 0.2 nM,< 50%,< 50%,< 100 nM,> 12500 nM,,,CNc1cc(Nc2cccn(C3CCCCC3)c2=O)nc2c(C(=O)N[C@H]3C[C@H]3F)cnn12 [I-305],,
< 0.2 nM,< 50%,< 50%,< 100 nM,> 50000 nM,,,CNc1cc(Nc2cccn(CC3CCCCO3)c2=O)nc2c(C(=O)N[C@H]3C[C@H]3F)cnn12 (stereo partly drawn) [I-365],,
< 0.2 nM,,,< 100 nM,> 12500 nM,,,"CNc1cc(Nc2cccn([C@H]3CC[C@](C)(OC)CC3)c2=O)nc2c(C(=O)N[C@@H]3CC[C@@H]3O)cnn12 [I-722, N-((1S,2R)-2-hydroxycyclobutyl)-5-((1-((1R,4S)-4-methoxy-4-methylcyclohexyl)-2-oxo-1,2-dihydropyridin-3-yl)amino)-7-(methylamino)pyrazolo[1,5-a]pyrimidine-3-carboxamide]",A (percent inhibition at 10 μM lower than 50),A (percent inhibition at 10 μM lower than 50)
0.2 to 1 nM,< 50%,< 50%,< 100 nM,> 2500 nM,,,CNc1cc(Nc2cc(F)cnc2OCCOC)nc2c(C(=O)NC3CCC3)cnn12 [I-290],,
< 0.2 nM,< 50%,50 to 70%,< 100 nM,> 2500 nM,,,CNc1cc(Nc2cccc([C@@H]3CCCOC3)n2)nc2c(C(=O)N[C@@H]3CC[C@H]3O)cnn12 [I-665],,
< 0.2 nM,< 50%,< 50%,< 100 nM,> 50000 nM,,,CNc1cc(Nc2cc(Cl)cn(-c3cnn(C4CC4)c3C)c2=O)nc2c(C(=O)N[C@H]3C[C@H]3F)cnn12 [I-326],,
< 0.2 nM,< 50%,< 50%,< 100 nM,> 50000 nM,,,CNc1cc(Nc2cccn([C@H]3CC[C@H](OC)CC3)c2=O)nc2c(C(=O)NC3CCC3)cnn12 [I-345],,
< 0.2 nM,< 50%,< 50%,< 100 nM,> 50000 nM,,,CNc1cc(Nc2cccn(C3CCCOC3)c2=O)nc2c(C(=O)NC3CCC3)cnn12 (racemic) [I-324],,
< 0.2 nM,< 50%,< 50%,< 100 nM,> 50000 nM,,,[2H]C([2H])([2H])Oc1ncccc1Nc1cc(NC)n2ncc(C(=O)NCC(C)(C)CO)c2n1 [I-347],,
< 0.2 nM,< 50%,< 50%,< 100 nM,> 50000 nM,,,CNc1cc(Nc2cc(F)cn([C@H]3CCCOC3)c2=O)nc2c(C(=O)N[C@H]3C[C@H]3F)cnn12 [I-559],,
< 0.2 nM,< 50%,< 50%,< 100 nM,> 50000 nM,,,CNc1cc(Nc2cccn(CCOC)c2=O)nc2c(C(=O)NC3CCC3)cnn12 [I-269],,
< 0.2 nM,< 50%,< 50%,< 100 nM,> 2500 nM,,,CNc1cc(Nc2cccn([C@H]3CCCOC3)c2=O)nc2c(C(=O)NC3CCC3)cnn12 [I-354],,
< 0.2 nM,< 50%,< 50%,100 to 500 nM,> 12500 nM,,,CNc1cc(Nc2cccn(-c3cnn(CC4CCOCC4)c3)c2=O)nc2c(C(=O)NC3CC3)cnn12 [I-406],,
